Test results: publication PMC7154053, “Chemical, Metabolic, and Cellular Characterization of a FtsZ Inhibitor Effective Against Burkholderia cenocepacia” (Frontiers in Microbiology, 2020)
Values after ≈ are worked out from the molar mass of the structure shown. Where two headings read alike, the source gives them in different places.

T1: B. cenocepacia nitroreductase BCAL0539 (BcNR) (Burkholderia cenocepacia, UniProt B4E8I2)
T1 sequence (B4E8I2 1-242): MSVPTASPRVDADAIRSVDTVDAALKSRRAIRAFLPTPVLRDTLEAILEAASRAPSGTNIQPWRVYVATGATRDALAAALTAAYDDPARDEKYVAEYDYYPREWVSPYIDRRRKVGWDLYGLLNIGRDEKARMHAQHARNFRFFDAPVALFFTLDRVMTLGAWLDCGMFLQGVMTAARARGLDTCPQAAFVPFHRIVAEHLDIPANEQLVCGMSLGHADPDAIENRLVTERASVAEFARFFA

B1: B. cenocepacia nitroreductase BCAL0539 (BcNR) (Burkholderia cenocepacia J2315) (protein)
chain: T1 sequence (B4E8I2 1-242)

Assays:
B. cenocepacia FCF19 [1] = experiment: MIC, 2-fold microdilution, resazurin method; type: cell-based, Burkholderia cenocepacia; conditions: clinical isolate FCF19; for MIC: Burkholderia cenocepacia
Description: (§1) Burkholderia cenocepacia strains, Escherichia coli ATCC 25922, Pseudomonas aeruginosa PAO1, and Staphylococcus aureus ATCC 25923 were grown in Luria-Bertani (LB) medium (Difco), if not differently specified, with shaking at 200 rpm, or on LB agar, at 37°C.
(§2) The microtiter plates were incubated at 37°C for 48 (for B. cenocepacia) or 24 h (for all the other strains) and growth was determined by the resazurin method (Martin et al., [2006]). A solution of resazurin sodium salt (Sigma Aldrich) was prepared at 0.01% in distilled water and filter-sterilized. Thirty microliter of resazurin solution were added to each well after 1 or 2 days of incubation at 37°C, and the microtiters were re-incubated at the same temperature for 4 h. The MIC was defined as the lowest concentration of the drug that prevented a change in color from blue to pink, which indicates bacterial growth.
(§3) Three independent biological replicates were used for each MIC determination.

B. cenocepacia FCF22 [2] = experiment: MIC, 2-fold microdilution, resazurin method; type: cell-based, Burkholderia cenocepacia; conditions: clinical isolate FCF22; for MIC: Burkholderia cenocepacia
Description: as §1, §2, §3

B. cenocepacia J2315 = experiment: MIC, 2-fold microdilution, resazurin method; type: cell-based, Burkholderia cenocepacia; conditions: for MIC: Burkholderia cenocepacia; for activity compared with C109, in words: SAR statements, against both bacteria and the purified enzyme
Description: as §1, §2, §3

E. coli ATCC 25922 = experiment: MIC, 2-fold microdilution, resazurin method; type: cell-based; conditions: Escherichia coli
Description: as §1, §2, §3

P. aeruginosa PAO1 = experiment: MIC, 2-fold microdilution, resazurin method; type: cell-based; conditions: Pseudomonas aeruginosa
Description: as §1, §2, §3

S. aureus ATCC 25923 = experiment: MIC, 2-fold microdilution, resazurin method; type: cell-based, Staphylococcus aureus; conditions: for MIC: Staphylococcus aureus; for spectrum of activity, in words: S. aureus vs Gram-negative species
Description: as §1, §2, §3

[3] = target: Burkholderia cenocepacia purified FtsZ protein (Burkholderia cenocepacia, UniProt B4E5Y7); experiment: biochemical; type: biochemical; conditions: for Inhibition of Bc FtsZ At 100 μM: 100 μM compound; for Inhibition of Bc FtsZ At 100 μM / Inhibits B. cenocepacia FtsZ GTPase at 100µM?: Yes/No; for Inhibits B. cenocepacia FtsZ GTPase at 100µM?: Supplementary Table 1
Sequence of Burkholderia cenocepacia purified FtsZ protein (B4E5Y7 entry or part of it): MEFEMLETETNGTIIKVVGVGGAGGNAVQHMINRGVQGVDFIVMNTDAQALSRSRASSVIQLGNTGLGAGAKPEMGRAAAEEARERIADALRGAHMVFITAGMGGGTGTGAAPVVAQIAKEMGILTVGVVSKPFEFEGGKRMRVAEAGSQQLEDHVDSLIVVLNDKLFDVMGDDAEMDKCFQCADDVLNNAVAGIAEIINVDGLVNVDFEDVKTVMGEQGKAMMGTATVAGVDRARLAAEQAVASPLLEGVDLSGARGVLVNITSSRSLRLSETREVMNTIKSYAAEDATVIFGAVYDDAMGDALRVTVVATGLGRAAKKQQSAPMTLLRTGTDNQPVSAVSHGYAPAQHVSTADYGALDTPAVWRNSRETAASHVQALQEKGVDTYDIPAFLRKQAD
Description: All the recombinant FtsZ proteins were expressed at 20°C overnight in E. coli BL21(DE3) cells, upon induction with 0.5 mM IPTG, and purified using the same protocol assessed for the wild-type B. cenocepacia FtsZ (Hogan et al., [2018]).
GTPase enzyme activity was determined using a pyruvate kinase/L-lactic dehydrogenase (PK/LDH) spectrophotometric coupled assay (Ingerman and Nunnari, [2005]). The assays were performed at 30°C, in a reaction mixture containing […] Hepes pH 7.5, 5 mM MgCl2, 5 mM KCl, 10 U PK/LDH, 0.25 mM NADH, 0.25 mM PEP, and 5–10 μM FtsZ, and initiated by the addition of 0.5 mM GTP. Alternatively, GTPase activity was determined by measuring the release of phosphate using the malachite green assay (Baykov et al., [1988]).
(1) A[I]=A[0]×(1-[I]/[I]+IC50)
where A[I] is the enzyme activity at inhibitor concentration [I] and A[0] is the enzyme activity without inhibitor.

P. aeruginosa = experiment: Checkerboard assay with efflux pump inhibitor PaβN MC-207.110; type: cell-based, Pseudomonas aeruginosa; conditions: Pseudomonas aeruginosa; read-out: MIC in the presence of MC-207.110, P. aeruginosa
Description: as §2, with “growth. […] Three independent biological replicates were used for each MIC determination.” for “growth.”

B. cenocepacia FCF19 [4] = experiment: as above; type: cell-based, Burkholderia cenocepacia; conditions: checkerboard, MC-207.110 0–128 μg/ml; C109 value at 128 μg/ml
Description: as §2, with “growth. […] Three independent biological replicates were used for each MIC determination.” for “growth.”

B. cenocepacia FCF22 [5] = experiment: as above; type: cell-based, Burkholderia cenocepacia; conditions: checkerboard, MC-207.110 0–128 μg/ml; C109 value at 128 μg/ml
Description: as §2, with “growth. […] Three independent biological replicates were used for each MIC determination.” for “growth.”

[6] = tested on: CF bronchial epithelial (CFBE41o-) cell line; experiment: Toxicity by MTT assay; type: cell-based; conditions: CFBE41o- cells, data not shown
B. cenocepacia = experiment: Resazurin-based assay of BcNR reaction mixtures; type: cell-based, Burkholderia cenocepacia; conditions: BcNR reactions with 1 mM C109, with or without NADPH; C109 result: in the absence of NADPH
Source text: To assess whether the resulting BcNR reduction product could inhibit B. cenocepacia growth, we carried out a resazurin-based assay.

[7] = target: T1, B. cenocepacia nitroreductase BCAL0539 (BcNR); experiment: BcNR nitroreductase steady-state kinetics (NADPH decrease at 340 nm); type: biochemical; conditions: compound as substrate of BcNR
Description: (§4) The reaction mixture typically contained 50 mM potassium phosphate pH 8.0, 50 mM KCl, 5–10 μM BcNR, and reactions were started by adding the substrate. Steady-state kinetics parameters were determined by assaying the enzyme at variable concentrations of substrate (10–500 μM). The experiments were performed in triplicate, and the kinetic constants Km and kcat determined by fitting the data to the Michaelis-Menten equation using Origin 8 software.

[8] = substrate: COC(=O)CSc1ccc2nsnc2c1[N+](=O)[O-]; experiment: as above; type: biochemical, Burkholderia cenocepacia; conditions: other: compound as substrate of BcNR; pH 8.0; 37.0 °C
Description: as §4

[9] = substrate: O=C(O)c1ccc([N+](=O)[O-])cc1; experiment: as above; type: biochemical, Burkholderia cenocepacia; conditions: other: compound as substrate of BcNR; pH 8.0; 37.0 °C
Description: as §4

[10] = J2315, LB, 48 h, read-out: MIC B. cenocepacia J2315
[11] = J2315, Supplementary Table 1, read-out: MIC (µg/ml) B. cenocepacia J2315
[12] = ATCC25922, LB, 24 h, read-out: MIC E. coli 25922
[13] = ATCC25922, Supplementary Table 1, read-out: MIC (µg/ml) E. coli 25922
[14] = PAO1, LB, 24 h, read-out: MIC P. aeruginosa PAO1
[15] = PAO1, Supplementary Table 1, read-out: MIC (µg/ml) P. aeruginosa PAO1
[16] = ATCC25923, LB, 24 h, read-out: MIC S. aureus 25923
[17] = ATCC25923, Supplementary Table 1, read-out: MIC (µg/ml) S. aureus 25923

Molecule	MIC (B. cenocepacia J2315; [10]) [µg/mL]	MIC (B. cenocepacia J2315; [11]) [µg/mL]	MIC (E. coli ATCC 25922; [12]) [µg/mL]	MIC (E. coli ATCC 25922; [13]) [µg/mL]	MIC (P. aeruginosa PAO1; [14]) [µg/mL]	MIC (P. aeruginosa PAO1; [15]) [µg/mL]	MIC (S. aureus ATCC 25923; [16]) [µg/mL]	MIC (S. aureus ATCC 25923; [17]) [µg/mL]	IC50 [3] [µM]	Inhibition of Bc FtsZ At 100 μM [3]	Inhibits B. cenocepacia FtsZ GTPase at 100µM? [3]	melting point [°C]	further results
CCOC(=O)CSc1ccc2nsnc2c1[N+](=O)[O-] [compound 11426142]	32 (≈ 107 µM)	32 (≈ 107 µM)	8 (≈ 26.7 µM)	8 (≈ 26.7 µM)	32 (≈ 107 µM)	32 (≈ 107 µM)	4 (≈ 13.4 µM)	4 (≈ 13.4 µM)	21	Yes	Yes	172 to 174	MIC (B. cenocepacia FCF19 [1]): 32 µg/mL (≈ 107 µM); MIC (B. cenocepacia FCF22 [2]): 32 µg/mL (≈ 107 µM); activity compared with C109, in words (B. cenocepacia J2315): partially lost activity; MIC (P. aeruginosa): 2 µg/mL; MIC in the presence of MC-207.110, FCF19 (B. cenocepacia FCF19 [4]): did not change; MIC in the presence of MC-207.110, FCF22 (B. cenocepacia FCF22 [5]): did not change; toxic concentration at 50% (TC50) [6]: 50 µM
O=C1CSc2ccc3nsnc3c2N1 [compound 11626109, 7H-[1,2,5]thiadiazolo[3,4-f][1,4]benzothiazin-8(9H)-one]	512 (≈ 2290 µM)	512 (≈ 2290 µM)	> 512	> 512	–	–	> 512	> 512	–	No	No	211 to 213	activity compared with C109, in words (B. cenocepacia J2315): loss of activity; activity against B. cenocepacia growth (B. cenocepacia): not active
COC(=O)C(C)Sc1ccc2nsnc2c1[N+](=O)[O-] (stereo not drawn) [compound 11826363]	16 (≈ 53.5 µM)	16 (≈ 53.5 µM)	16 (≈ 53.5 µM)	16 (≈ 53.5 µM)	256 (≈ 855 µM)	256 (≈ 855 µM)	64 (≈ 214 µM)	64 (≈ 214 µM)	30	Yes	Yes	161 to 163	–
O=C(O)c1ccc([N+](=O)[O-])cc1 [4-nitrobenzoic acid]	–	–	–	–	–	–	–	–	–	–	–	–	Vmax (Figure 3) [7]: 17.5 ± 1.4 s⁻¹
O=[N+]([O-])c1c(N=C=S)ccc2nsnc12 [compound 10026149]	–	–	16 (≈ 67.2 µM)	–	16 (≈ 67.2 µM)	–	2 (≈ 8.39 µM)	–	–	Yes	Yes	185 to 187	MIC (B. cenocepacia FCF19 [1]): 64 µg/mL (≈ 269 µM); MIC B. cenocepacia FCF19 (B. cenocepacia FCF19 [1]): resistance; MIC (B. cenocepacia FCF22 [2]): 256 µg/mL (≈ 1070 µM); MIC B. cenocepacia FCF22 (B. cenocepacia FCF22 [2]): resistance; MIC (B. cenocepacia J2315; J2315, 48 h, read-out: MIC (µg/ml) B. cenocepacia J2315): 32 µg/mL (≈ 134 µM); MIC (B. cenocepacia J2315; J2315, 48 h, read-out: MIC B. cenocepacia J2315): 32 µg/mL (≈ 134 µM); MIC (E. coli ATCC 25922; ATCC25922, 24 h, Supplementary Table 1, read-out: MIC (µg/ml) E. coli 25922): 16 µg/mL (≈ 67.2 µM); MIC (P. aeruginosa PAO1; PAO1, 24 h, Supplementary Table 1, read-out: MIC (µg/ml) P. aeruginosa PAO1): 16 µg/mL (≈ 67.2 µM); MIC (S. aureus ATCC 25923; ATCC25923, 24 h, Supplementary Table 1, read-out: MIC (µg/ml) S. aureus 25923): 2 µg/mL (≈ 8.39 µM); IC50 ([3]; read-out: Inhibition of Bc FtsZ IC50, GTPase activity): 20 µM
N#CSc1cc(SC#N)c2nsnc2c1[N+](=O)[O-] [compound 10626056]	> 64	> 64	> 512	> 512	> 128	> 128	8 (≈ 27.1 µM)	8 (≈ 27.1 µM)	52	Yes	Yes	167 to 169	spectrum of activity, in words (S. aureus ATCC 25923): showed activity only against S. aureus
O=[N+]([O-])c1c(SC(=S)N2CCSCC2)ccc2nsnc12 [compound 11126015]	> 128	> 128	> 512	> 512	> 128	> 128	32 (≈ 89.3 µM)	32 (≈ 89.3 µM)	36	Yes	Yes	140 to 142	spectrum of activity, in words (S. aureus ATCC 25923): showed activity only against S. aureus
B1	–	–	–	–	–	–	–	–	–	–	–	–	Km [8]: 80 ± 5 µM; Vmax [8]: 71.9 µmol/min/mg; kcat [8]: 165 ± 5.9 s⁻¹; kcat/Km [8]: 2.064e+06 ± 20100 M⁻¹ s⁻¹; Km [9]: 200 ± 21 µM; Vmax [9]: 7.6 µmol/min/mg; kcat [9]: 17.5 ± 1.4 s⁻¹; kcat/Km [9]: 87500 ± 8100 M⁻¹ s⁻¹
